The values that follow are results of earlier work, collected in publication PMC11165342 (Asian Journal of Pharmaceutical Sciences, 2024).

With `CC(C(=O)O)c1ccc(-c2ccccc2)c(F)c1` (stereo not shown) [FB, Flurbiprofen], the pKa was 3.5–4.5.
